Drawing on ChEMBL document CHEMBL1764986, “Per-N-methylated analogues of an antitumor bicyclic hexapeptide RA-VII” (Bioorg Med Chem, 2011), this text covers IC50 for six compounds.

This assay deals with P388. As to the kind of experiment: Cytotoxicity against mouse P388 cells. It is filed as functional, cell-based.
Consider `COc1ccc(C[C@H]2C(=O)N(C)[C@@H](C)C(=O)N(C)[C@H]3Cc4ccc(cc4)Oc4cc(ccc4OC)C[C@@H](C(=O)N(C)[C@H](C)C(=O)N(C)[C@@H](C)C(=O)N2C)N(C)C3=O)cc1`, for which inhibition was half-maximal at 3.1 µM (IC50).
`COc1ccc(C[C@H]2C(=O)N(C)[C@@H](C)C(=O)N(C)[C@H]3Cc4ccc(cc4)Oc4cc(c(Br)cc4OC)C[C@@H](C(=O)N(C)[C@H](C)C(=O)N(C)[C@@H](C)C(=O)N2C)N(C)C3=O)cc1` registered an IC50 above 110 µM.
Then `COc1ccc(C[C@H]2C(=O)N(C)[C@@H](C)C(=O)N(C)[C@H]3Cc4ccc(cc4)Oc4cc(ccc4OC)C[C@@H](C(=O)N(C)[C@H](C)C(=O)N[C@@H](C)C(=O)N2C)N(C)C3=O)cc1`, with 10 µM.
For the compound `COc1ccc(C[C@H]2C(=O)N[C@@H](C)C(=O)N(C)[C@H]3Cc4ccc(cc4)Oc4cc(ccc4OC)C[C@@H](C(=O)N[C@H](C)C(=O)N(N)[C@@H](C)C(=O)N2C)N(C)C3=O)cc1`, the midpoint of inhibition, the IC50, lay at 0.0057 µM.
`COc1ccc(C[C@H]2C(=O)N(C)[C@@H](C)C(=O)N(C)[C@H]3Cc4ccc(cc4)Oc4cc(ccc4OC)C[C@@H](C(=O)N(C)[C@H](C)C(=O)N(N)[C@@H](C)C(=O)N2C)N(C)C3=O)cc1` displayed an IC50 of 49 µM.
In the case of `COc1ccc(C[C@H]2C(=O)N[C@@H](C)C(=O)N(C)[C@H]3Cc4ccc(cc4)Oc4cc(ccc4OC)C[C@@H](C(=O)N[C@H](C)C(=O)N[C@@H](C)C(=O)N2C)N(C)C3=O)cc1`, the IC50 came out at 0.0022 µM.

What is called IC50 is the concentration at which inhibition is half-maximal. Read a low IC50 as inhibition by little substance.
